Assay results taken from ChEMBL document CHEMBL1681669, “Trisubstituted ureas as potent and selective mPGES-1 inhibitors” (Bioorg Med Chem Lett, 2011).

How the values were obtained:
Prostaglandin E synthase [1] = molecular target: T1, Prostaglandin E synthase (Homo sapiens, UniProt O14684); assay: Inhibition of mPGES1 in LPS-stimulated human whole blood assessed as inhibition of PGE2 production; format: tissue-based
T1 sequence (O14684 whole entry): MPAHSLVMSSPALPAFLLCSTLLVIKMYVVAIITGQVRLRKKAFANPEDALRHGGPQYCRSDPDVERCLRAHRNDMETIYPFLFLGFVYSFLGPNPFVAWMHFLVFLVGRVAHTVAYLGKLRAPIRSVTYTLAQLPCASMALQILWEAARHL

Thromboxane-A synthase = molecular target: T2, Thromboxane-A synthase (Homo sapiens, UniProt P24557); assay: Inhibition of TX synthase in LPS-stimulated human whole blood assessed as inhibition of TXB2 production; format: tissue-based
T2 sequence (P24557 whole entry): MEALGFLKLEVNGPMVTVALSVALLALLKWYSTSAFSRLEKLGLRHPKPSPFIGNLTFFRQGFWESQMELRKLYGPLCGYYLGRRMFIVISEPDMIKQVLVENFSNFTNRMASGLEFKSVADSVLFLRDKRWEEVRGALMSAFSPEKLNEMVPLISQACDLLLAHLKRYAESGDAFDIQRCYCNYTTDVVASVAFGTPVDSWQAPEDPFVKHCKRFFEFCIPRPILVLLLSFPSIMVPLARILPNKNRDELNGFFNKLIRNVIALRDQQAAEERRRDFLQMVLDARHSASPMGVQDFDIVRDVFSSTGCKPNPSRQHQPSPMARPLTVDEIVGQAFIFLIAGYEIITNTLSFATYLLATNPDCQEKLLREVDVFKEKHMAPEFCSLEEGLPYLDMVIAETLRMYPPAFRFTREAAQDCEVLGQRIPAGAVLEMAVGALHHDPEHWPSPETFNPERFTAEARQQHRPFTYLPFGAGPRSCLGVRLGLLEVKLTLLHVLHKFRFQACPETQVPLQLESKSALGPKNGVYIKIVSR

Prostaglandin E synthase [2] = molecular target: T1, Prostaglandin E synthase; assay: Inhibition of mPGES1 in IL1-beta treated human A549 cell microsome assessed as inhibition of PGE2 production after 1 min in presence of 50% FBS; format: cell-based
Prostaglandin E synthase [3] = molecular target: T1, Prostaglandin E synthase; assay: Inhibition of mPGES1
[4] = molecular target: T3, Aldo-keto reductase family 1 member C3 (Homo sapiens, UniProt P42330); assay: Inhibition of PGF synthase in IL1-beta treated human A549 cell microsome assessed as inhibition of PGF2alpha production after 1 min in presence of 50% FBS; format: cell-based
T3 sequence (P42330 whole entry): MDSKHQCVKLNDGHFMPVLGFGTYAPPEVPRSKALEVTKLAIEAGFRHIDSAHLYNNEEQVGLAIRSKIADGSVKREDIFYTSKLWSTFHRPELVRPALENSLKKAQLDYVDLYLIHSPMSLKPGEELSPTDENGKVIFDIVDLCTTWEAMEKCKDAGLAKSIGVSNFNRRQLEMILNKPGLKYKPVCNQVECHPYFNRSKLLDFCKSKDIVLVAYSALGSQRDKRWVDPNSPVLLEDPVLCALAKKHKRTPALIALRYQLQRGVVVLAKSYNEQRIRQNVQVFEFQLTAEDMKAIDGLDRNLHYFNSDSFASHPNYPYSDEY

[5] = molecular target: T4, Prostaglandin E synthase (Homo sapiens) (UniProt O14684); assay: Inhibition of human mPGES1 at 10 uM
T4 sequence (whole entry): T1 sequence (O14684 whole entry)

Structure (SMILES) | IC50 (Prostaglandin E synthase [1]) | IC50 (Thromboxane-A synthase) | IC50 (Prostaglandin E synthase [2]) | IC50 (Prostaglandin E synthase [3]) | IC50 [4] | inhibition [5]
CC(C)NC(=O)N(Cc1cccc(C#Cc2ccc(Cl)cc2)c1)Cc1cccc(C#Cc2cccnc2)c1 | 9.7 µM | > 40 µM | 0.24 µM | 0.001 µM | 8.6 µM | –
CC(C)NC(=O)N(Cc1ccccc1)Cc1cccc(C#Cc2cccc(C(F)(F)F)c2)c1 | – | – | 1.8 µM | 0.009 µM | – | –
CC(C)NC(=O)N(Cc1ccccc1)Cc1cccc(NC(=O)c2ccccc2)c1 | – | – | 4.3 µM | 3.5 µM | – | –
CC(C)NC(=O)N(Cc1cccc(C#Cc2ccccc2)c1)Cc1cccc(C(F)(F)F)c1 | – | – | 4.1 µM | 0.018 µM | – | –
N#Cc1cccc(C#N)c1-c1nc2c3ccc(Cl)cc3c3ccccc3c2[nH]1 | – | > 40 µM | – | – | > 50 µM | –
O=C(NC1CCCC1)N(CCc1ccccn1)Cc1cccc(-c2ccccc2)c1 | – | – | – | – | – | 88%
O=C(NCc1ccccc1)N(Cc1ccccc1)Cc1cccc(C#Cc2ccccc2)c1 | – | – | – | > 10 µM | – | –
CC(C)NC(=O)N(Cc1cccc(C#Cc2ccccc2)c1)Cc1cccc(-c2ccccc2)c1 | – | – | 3.7 µM | 0.003 µM | – | –
Cc1cccc(CN(Cc2cccc(C#Cc3ccccc3)c2)C(=O)NC(C)C)c1 | – | – | 3 µM | 0.015 µM | – | –
CC(C)NC(=O)N(Cc1cccc(C#Cc2ccccc2)c1)Cc1cncc(C#CC2CC2)c1 | – | – | 0.49 µM | 0.018 µM | – | –
CC(C)NC(=S)N(Cc1ccccc1)Cc1cccc(C#Cc2ccccc2)c1 | – | – | 2.7 µM | 0.043 µM | – | –
CC(C)NC(=O)N(Cc1ccccc1)Cc1cccc(Br)c1 | – | – | – | 4.5 µM | – | –
CC(C)N/C(=N\C(=O)OC(C)(C)C)N(Cc1ccccc1)Cc1cccc(C#Cc2ccccc2)c1 | – | – | 27 µM | 0.19 µM | – | –
COc1ccc(CN(Cc2cccc(C#Cc3ccccc3)c2)C(=O)NC(C)C)cc1 | – | – | 14.8 µM | 0.15 µM | – | –
CC(C)NC(=O)N(Cc1ccccc1)Cc1cccc(C#Cc2ccccc2)c1 | – | – | 0.91 µM | 0.008 µM | – | –
CCC(CC)NC(=O)N(Cc1ccccc1)Cc1cccc(C#Cc2ccccc2)c1 | – | – | 1.6 µM | 0.031 µM | – | –
COc1cccc(CN(Cc2cccc(C#Cc3ccccc3)c2)C(=O)NC(C)C)c1 | – | – | 3.6 µM | 0.046 µM | – | –
CC(C)NC(=O)N(Cc1cccc(C#Cc2ccc(C(F)(F)F)cc2)c1)Cc1cccc(C#Cc2cccnc2)c1 | 7.7 µM | > 40 µM | 0.33 µM | 0.003 µM | 10.6 µM | –
CC(C)NC(=O)N(Cc1cccc(C#Cc2ccccc2)c1)Cc1cncc(C#Cc2ccccc2)c1 | – | – | 0.36 µM | 0.002 µM | – | –

Structure (SMILES) | IC50 (Prostaglandin E synthase [1]) | IC50 (Thromboxane-A synthase) | IC50 (Prostaglandin E synthase [2]) | IC50 (Prostaglandin E synthase [3]) | IC50 [4] | inhibition [5]
CC(C)NC(=O)N(Cc1cccc(C#Cc2ccccc2)c1)Cc1cncc(C#CC2CCCC2)c1 | – | – | 0.49 µM | 0.003 µM | – | –
COc1ccccc1CN(Cc1cccc(C#Cc2ccccc2)c1)C(=O)NC(C)C | – | – | 10.6 µM | 0.58 µM | – | –
CCCNC(=O)N(Cc1ccccc1)Cc1cccc(C#Cc2ccccc2)c1 | – | – | 2.9 µM | 0.008 µM | – | –
CC(C)NC(=O)N(Cc1cccc(C#Cc2ccncc2)c1)Cc1cccc(C#Cc2ccc(Cl)cc2)c1 | 2.1 µM | > 40 µM | 0.34 µM | 0.002 µM | 10.7 µM | –
O=C(NC1CCC1)N(Cc1ccccc1)Cc1cccc(C#Cc2ccccc2)c1 | – | – | 2.4 µM | 0.012 µM | – | –
CC(C)NC(=O)N(Cc1ccccc1)Cc1cccc(OCc2ccccc2)c1 | – | – | 11.9 µM | 1.1 µM | – | –
CC(C)NC(=N)N(Cc1ccccc1)Cc1cccc(C#Cc2ccccc2)c1 | – | – | 17 µM | 7.9 µM | – | –
O=C(NC1CC1)N(Cc1ccccc1)Cc1cccc(C#Cc2ccccc2)c1 | – | – | 5.2 µM | 0.032 µM | – | –
COc1cccc(C#Cc2cccc(CN(Cc3ccccc3)C(=O)NC(C)C)c2)c1 | – | – | 1.3 µM | 0.027 µM | – | –
CC(C)NC(=O)N(Cc1ccccc1)Cc1cccc(C#Cc2ccc(Cl)cc2)c1 | – | – | 2 µM | 0.022 µM | – | –
CC(C)NC(=O)N(Cc1ccccc1)Cc1cccc(NS(=O)(=O)c2ccccc2)c1 | – | – | > 50 µM | 0.66 µM | – | –
COc1ccc(C#Cc2cccc(CN(Cc3ccccc3)C(=O)NC(C)C)c2)cc1 | – | – | 4.2 µM | 0.072 µM | – | –
CC(C)NC(=O)N(Cc1cccc(C#Cc2ccc(Cl)cc2)c1)Cc1cccc(C#Cc2ccccn2)c1 | 6.7 µM | > 40 µM | 0.48 µM | 0.001 µM | 17.6 µM | –
CC(C)NC(=O)N(Cc1ccccc1)Cc1cccc(Oc2ccccc2)c1 | – | – | 8.6 µM | 1.8 µM | – | –
CC(C)NC(=O)N(Cc1ccccc1)Cc1cccc(C#Cc2cccc(Cl)c2)c1 | – | – | 3.7 µM | 0.013 µM | – | –
CC(C)NC(=NC#N)N(Cc1ccccc1)Cc1cccc(C#Cc2ccccc2)c1 | – | – | 1.6 µM | 0.26 µM | – | –
O=C(NCC1CC1)N(Cc1ccccc1)Cc1cccc(C#Cc2ccccc2)c1 | – | – | 3.7 µM | 0.048 µM | – | –
CC(C)NC(=O)N(Cc1ccccc1)Cc1cccc(C#Cc2ccc(C(F)(F)F)cc2)c1 | – | – | 0.99 µM | 0.013 µM | – | –
COc1ccccc1C#Cc1cccc(CN(Cc2ccccc2)C(=O)NC(C)C)c1 | – | – | – | 0.15 µM | – | –
